Legend:
IDO1 = target: T1, IDO1 (Homo sapiens, UniProt P14902); test: Enzyme-based IDO1 activity assay; assay type: biochemical; conditions: for IC50: read-out: Enzymatic assay IC50 (hIDO1); for Inhibition ratio (%) @10 μM: 10 μM compound, purified recombinant IDO1
T1 construct: made in house

HeLa (IDO1) = HeLa (IDO1) (Homo sapiens, UniProt P14902); test: Cell-based IDO1 activity assay (HeLa kynurenine assay); conditions: IFN-γ stimulated HeLa cells; for EC50: 24 h, read-out: Cellular assay EC50 HeLa (IDO1); for Hill slope of the curves (cellular dose response): Figure 9
HeLa (IDO1), sequence (P14902 whole entry): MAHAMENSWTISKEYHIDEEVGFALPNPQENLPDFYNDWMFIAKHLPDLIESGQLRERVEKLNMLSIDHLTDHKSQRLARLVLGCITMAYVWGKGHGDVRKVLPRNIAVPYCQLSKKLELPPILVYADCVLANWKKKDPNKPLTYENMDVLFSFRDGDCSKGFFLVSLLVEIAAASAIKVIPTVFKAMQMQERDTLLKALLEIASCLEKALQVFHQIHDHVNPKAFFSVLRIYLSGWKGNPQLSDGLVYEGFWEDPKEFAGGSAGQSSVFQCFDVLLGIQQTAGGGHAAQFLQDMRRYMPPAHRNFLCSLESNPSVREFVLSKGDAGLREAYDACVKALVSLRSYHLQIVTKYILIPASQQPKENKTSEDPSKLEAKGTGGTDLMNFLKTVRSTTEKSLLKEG
Procedure: After incubation for 24 h, 140 µL of supernatant was mixed with 10 µL of 6.1 N trichloroacetic acid and the mixture was incubated for 30 min at 60 °C. The reaction mixture was then centrifuged for 20 min at 4000 rpm at 0 °C to remove sediments. About 100 µL of the supernatant was mixed with 100 µL of 2% (w/v) p-DMAB in acetic acid and measured at 480 nm. The final DMSO concentration was 0.5%. The data were analysed using Graphpad Prism 6.
The HeLa-based cellular assay is informative for drug development, as it evaluates not only the IDO1 inhibitory effect of the compounds but also their capacity to permeate the cell, their inhibition of tryptophan and kynurenine transport and their potential cytotoxicity. […] In addition, since the inhibition of tryptophan degradation could simply be an effect of cytotoxicity, thus the determination of cell viability was necessary when reporting cellular IC50 values. In the initial work, all of the screened compounds were determined for their cell viability using the classical MTT assy.

HeLa = conditions: Figure 1, literature value; cited from earlier work

T1 sequence (P14902 whole entry): as above

With `Cc1cc(C)c(C#N)c(SCC(=O)Nc2sc(C)c(C)c2C#N)n1` [LVS-036] the IC50 (IDO1; purified human IDO1 enzyme) was 78.7 ± 8.46 µM.

With `Cc1cc(C)c(C#N)c(SCC(=O)Nc2sc3c(c2C#N)CCC3)n1` [LVS-045] the IC50 (IDO1; purified human IDO1 enzyme) was 26 ± 9.64 µM.

With `Cc1cc(C)c(C#N)c(SCC(=O)Nc2ccc(Cl)c(Cl)c2)n1` [LVS-039] the EC50 (HeLa (IDO1)) was 3.42 ± 0.56 µM, the “Hill slope of the curves (cellular dose response)” value (HeLa (IDO1)) was 0.69 and the IC50 (IDO1; purified human IDO1 enzyme) was 2.57 ± 0.42 µM.

For `O=C(Cn1nnnc1-c1ccccc1)c1ccc(Br)cc1` [LVS-030], the “Inhibition ratio (%) @10 μM” value (IDO1) was 2.00 ± 0.28%.

“2-((3-Cyano-6-(trifluoromethyl)pyridin-2-yl)thio)-N-(p-tolyl)acetamide [LBJ-13]” showed an IC50 (IDO1; purified human IDO1 enzyme) of 23.6 ± 2.11 µM.

`O=C(CSc1cccc(C(F)(F)F)n1)Nc1ccc(F)c(Cl)c1` [LBJ-14, N-(3-Chloro-4-fluorophenyl)-2-((6-(trifluoromethyl)pyridin-2-yl)thio)acetamide] gave a melting point of 86 to 88 °C and an IC50 (IDO1; purified human IDO1 enzyme) of 35.7 ± 1.25 µM.

For `Sc1nnc(-c2csc3c2CCCC3)n1Cc1ccccc1` [LVS-032], the IC50 (IDO1; purified human IDO1 enzyme) was 10.4 ± 1.01 µM.

`N#Cc1cc2c(nc1SCC(=O)Nc1sc3c(c1C#N)CCCC3)CCCCCC2` [LVS-049] gave an IC50 (IDO1; purified human IDO1 enzyme) of 14.8 ± 3.14 µM.

Molecule `N#Cc1ccncc1SCC(=O)Nc1ccc(F)cc1` [LBJ-04, 2-((4-Cyanopyridin-3-yl)thio)-N-(4-fluorophenyl)acetamide] has a melting point of 206 to 209 °C and an IC50 (IDO1; purified human IDO1 enzyme) of 43.6 ± 0.85 µM.

Work on `N#Cc1c(C(F)(F)F)cc(-c2cccs2)nc1SCC(=O)Nc1ccc2ccccc2c1` [LVS-034] yielded an IC50 (IDO1; purified human IDO1 enzyme) of 66.2 ± 14.3 µM.

Work on `N#Cc1ccccc1SCC(=O)Nc1ccc(F)cc1` [LBJ-02, 2-((2-Cyanophenyl)thio)-N-(4-fluorophenyl)acetamide] yielded a melting point of 215 to 217 °C.

Work on `N#Cc1c(C(F)(F)F)cc(-c2cccs2)nc1SCC(=O)Nc1ccc(F)cc1` [LVS-037] yielded an IC50 (IDO1; purified human IDO1 enzyme) of 54.7 ± 4.7 µM.

For `O=C(CS(=O)(=O)c1ccccc1)Nc1ccc(Br)cn1` [LVS-022], the “Inhibition ratio (%) @10 μM” value (IDO1) was 21.29 ± 0.22%.

With `COc1ccccc1-c1cc(C(=O)O)c2ccccc2n1` [LVS-020] the “Inhibition ratio (%) @10 μM” value (IDO1) was 0.11 ± 1.98%.

In the case of `NS(=O)(=O)NCCNc1nonc1C(=NO)Nc1ccc(F)c(Br)c1` [Compound 3], the IC50 (HeLa) is listed as 0.0071 µM.

Work on `O=[N+]([O-])c1ccc(Oc2nsnc2N2CCOCC2)cc1` [LVS-018] yielded an IC50 (IDO1; purified human IDO1 enzyme) of 18.4 ± 2.31 µM.

In the case of `O=C(Nc1ccc2nsnc2c1)c1ccc(F)cc1` [LVS-006], the “Inhibition ratio (%) @10 μM” value (IDO1) is reported as 15.83 ± 0.18%.

For `Cc1ccc(NC(=O)COc2ccccc2CO)cc1` [LVS-014], the “Inhibition ratio (%) @10 μM” value (IDO1) was 11.62 ± 1.19%.

With `O=c1c2c(-c3ccc([N+](=O)[O-])cc3)csc2nc2n1CCC2` [LVS-004] the “Inhibition ratio (%) @10 μM” value (IDO1) was 9.65 ± 0.09%.

In the case of `CCc1nc(SCC(=O)Nc2sc3c(c2C#N)CCC3)c(C#N)cc1C` [LVS-047], the IC50 (IDO1; purified human IDO1 enzyme) is reported as 21.2 ± 7.1 µM.

With `Cc1sc2nc(SCC(=O)c3ccc(F)cc3)n(N)c(=O)c2c1C` [LVS-001] the IC50 (IDO1; purified human IDO1 enzyme) was 14.2 ± 1.43 µM.

Work on `Cn1c(COc2ccccc2)c(C#N)c2ccccc21` [LVS-002] yielded an IC50 (IDO1; purified human IDO1 enzyme) of 8.08 ± 1.3 µM.

Molecule `N#Cc1ccc(C(F)(F)F)nc1SCC(=O)Nc1ccccc1` [LBJ-11, 2-((3-Cyano-6-(trifluoromethyl)pyridin-2-yl)thio)-N-phenylacetamide] has a melting point of 230 to 233 °C and an IC50 (IDO1; purified human IDO1 enzyme) of 9.61 ± 0.71 µM.

With `Cc1cc(C(F)(F)F)nc(SCC(=O)Nc2sc3c(c2C#N)CCC3)c1C#N` [LVS-048] the EC50 (HeLa (IDO1)) was 9.4 ± 0.07 µM, the “Hill slope of the curves (cellular dose response)” value (HeLa (IDO1)) was 0.70 and the IC50 (IDO1; purified human IDO1 enzyme) was 8.76 ± 1.74 µM.

`COc1cccc(-c2ccc(C#N)c(SCC(=O)Nc3cccc(C)c3)n2)c1` [LVS-041] showed an IC50 (IDO1; purified human IDO1 enzyme) of 55.1 ± 10.1 µM.

With `Cc1ccc(C(=O)CC2(O)C(=O)N(C)c3ccccc32)cc1` (stereo not shown) [LVS-029] the “Inhibition ratio (%) @10 μM” value (IDO1) was 9.91 ± 0.65%.

`CCN(CC)C(=O)CSc1nc(C)cc(C)c1C#N` [LVS-033] gave an IC50 (IDO1; purified human IDO1 enzyme) of 36.6 ± 5.46 µM.

In the case of `Cc1cc(C)c(C#N)c(SCC(=O)Nc2nccs2)n1` [LVS-055], the “Enzymatic assay IC50 (hIDO1)” value (IDO1; purified human IDO1 enzyme) is reported as “Not Converged”.

Work on `N#Cc1ncccc1SCC(=O)Nc1ccc(F)cc1` [LBJ-06, 2-((2-Cyanopyridin-3-yl)thio)-N-(4-fluorophenyl)acetamide] yielded a melting point of 211 to 213 °C.

With `O=C(CSc1nnc2scc(-c3ccc(Cl)cc3)n12)Nc1ccc(F)cc1` [LVS-005] the “Inhibition ratio (%) @10 μM” value (IDO1) was 30.73 ± 0.93%.
